Data reported in US20130096067A1, “DROSOPHILA TUMOR STEM CELL MODEL AND USES THEREOF” (priority 2011, published 2013).
Like-named read-outs stand apart in the source and are kept apart here. Square brackets hold non-standard residues; d marks the D form. Peptide text beside a SMILES is read from it. * marks the point of attachment. Sta = CC(C)C[C@H](N)[C@@H](O)CC(=O)O; Isovaleryl = CC(C)CC(=O)*

Test system: Raf-1^gof intestinal tumors
Conditions: for Log2 (fold) of luciferase activity relative to DMSO controls / Fold (luciferase activity relative to DMSO controls): ICCB compounds fed in vials to flies with one-day old Raf-1^gof tumors; for Fold: luciferase relative to DMSO, fed three consecutive days in vials
[1] = assessed three days later, averaged from multiple wells
[2] = screen of 480 ICCB compounds in vials, compounds fed to flies with one-day old Raf-1^gof tumors, assessed three days later, esg-Gal4 luciferase
[3] = screen of 480 ICCB compounds in vials, compounds fed to flies with one-day old Raf-1^gof tumors, assessed three days later, esg-Gal4 luciferase, averaged from multiple wells
[4] = Table 3 summary of hits, Screen ICCB
For Fold (luciferase activity relative to DMSO controls) in this document: test concentration or dose not given here.
For Fold (luciferase activity, fold difference relative to DMSO controls) in this document: test concentration or dose not given here.
For Log2 (fold) (luciferase activity, log2 of the fold difference relative to DMSO controls) in this document: test concentration or dose not given here.
For Log2 (fold) of luciferase activity relative to DMSO controls in this document: test concentration or dose not given here.

CCCCNc1cc(C(=O)O)cc(S(N)(=O)=O)c1Oc1ccccc1 [bumetanide]
Log2 (fold) of luciferase activity relative to DMSO controls (assessed three days later): −0.048 | Fold (luciferase activity relative to DMSO controls) [1]: 0.967 fold

CCCC[C@@H](C=O)NC(=O)[C@H](CC(C)C)NC(=O)OCc1ccccc1 [calpeptin]
Log2 (fold) (luciferase activity, log2 of the fold difference relative to DMSO controls) [2]: −0.235 | Fold (luciferase activity, fold difference relative to DMSO controls) [3]: 0.849

COC[C@@H]([C@H](O)[C@H](O)C(=O)NCC[C@H](C)c1nc(/C=C/C[C@@H]2O[C@]3(C[C@@H](O)[C@@H]2C)O[C@H]([C@H](C[C@H](O)[C@H](C)[C@H](O)[C@H](C)/C=C(C)/C(C)=C/C=C/C(C)=C\C#N)OC)[C@H](OP(=O)(O)O)C3(C)C)co1)N(C)C [calyculin A, reference compound]
Fold [4]: 0.413 fold | Log2 (fold) (luciferase activity, log2 of the fold difference relative to DMSO controls) [2]: −1.276 | Fold (luciferase activity, fold difference relative to DMSO controls) [3]: 0.413

CC[C@@]1(O)C(=O)OCc2c1cc1n(c2=O)Cc2cc3ccccc3nc2-1 [camptothecin, reference compound]
Log2 (fold) [4]: −1.619

Oc1cc2c(cc1O)CN(C(=S)NCCc1ccc(Cl)cc1)CCC2 [capsazepine]
Log2 (fold) of luciferase activity relative to DMSO controls (assessed three days later): −0.030 | Fold (luciferase activity relative to DMSO controls) [1]: 0.979 fold

O[C@H]1[C@H](O)[C@@H](O)CN2CC[C@H](O)[C@H]12 [castanospermine]
Log2 (fold) (luciferase activity, log2 of the fold difference relative to DMSO controls) [2]: −0.351 | Fold (luciferase activity, fold difference relative to DMSO controls) [3]: 0.784

Clc1cccc(Cl)c1N=C1NCCN1 [clonidine]
Log2 (fold) of luciferase activity relative to DMSO controls (assessed three days later): 0.087 | Fold (luciferase activity relative to DMSO controls) [1]: 1.062 fold

CN1CCN(C2=Nc3cc(Cl)ccc3Nc3ccccc32)CC1 [clozapine]
Log2 (fold) of luciferase activity relative to DMSO controls (assessed three days later): −0.126 | Fold (luciferase activity relative to DMSO controls) [1]: 0.916 fold

C[C@@H]1C[C@@H]([C@H](O)CC2CC(=O)NC(=O)C2)C(=O)[C@@H](C)C1 [cycloheximide, reference compound]
Fold [4]: 0.337 fold | Log2 (fold) (luciferase activity, log2 of the fold difference relative to DMSO controls) [2]: −1.568 | Fold (luciferase activity, fold difference relative to DMSO controls) [3]: 0.337

CCOC(=O)CN1C(=O)CC(C[C@@H](O)[C@@H]2C[C@@H](C)C[C@H](C)C2=O)CC1=O [cycloheximide-N-ethylethanoate]
Log2 (fold) of luciferase activity relative to DMSO controls (assessed three days later): −0.014 | Fold (luciferase activity relative to DMSO controls) [1]: 0.990 fold

C=C1[C@@H](C)[C@H]2[C@H](Cc3ccccc3)NC(=O)[C@]23OC(=O)/C=C/[C@H](O)CCC[C@@H](C)C/C=C/[C@H]3[C@@H]1O [cytochalasin B]
Log2 (fold) (luciferase activity, log2 of the fold difference relative to DMSO controls) [2]: −0.677 | Fold (luciferase activity, fold difference relative to DMSO controls) [3]: 0.625

C=C1[C@@H](C)[C@H]2[C@H](Cc3ccccc3)NC(=O)[C@]23[C@H](OC(C)=O)/C=C/[C@@](C)(O)C(=O)[C@@H](C)C/C=C/[C@H]3[C@@H]1O [cytochalasin D]
Log2 (fold) (luciferase activity, log2 of the fold difference relative to DMSO controls) [2]: −0.276 | Fold (luciferase activity, fold difference relative to DMSO controls) [3]: 0.826

COc1c(C=O)c(O)cc2c1C(=O)c1ccccc1C2=O [damnacanthal]
Log2 (fold) (luciferase activity, log2 of the fold difference relative to DMSO controls) [2]: −0.482 | Fold (luciferase activity, fold difference relative to DMSO controls) [3]: 0.716

C=C1O[C@@](CO)(n2cnc3c(N)ncnc32)[C@H](O)[C@@H]1O [decoyinine]
Log2 (fold) (luciferase activity, log2 of the fold difference relative to DMSO controls) [2]: −0.298 | Fold (luciferase activity, fold difference relative to DMSO controls) [3]: 0.813

OC[C@H]1NC[C@@H](O)[C@@H](O)[C@@H]1O [deoxymannojirimycin(1)]
Log2 (fold) of luciferase activity relative to DMSO controls (assessed three days later): −0.125 | Fold (luciferase activity relative to DMSO controls) [1]: 0.917 fold

OC[C@H]1NC[C@H](O)[C@@H](O)[C@@H]1O [deoxynorjrimycin(1)]
Log2 (fold) of luciferase activity relative to DMSO controls (assessed three days later): −0.154 | Fold (luciferase activity relative to DMSO controls) [1]: 0.899 fold

C[C@@H]1C[C@H]2[C@@H]3CCC4=CC(=O)C=C[C@]4(C)[C@@]3(F)[C@@H](O)C[C@]2(C)[C@@]1(O)C(=O)CO [dexamethasone]
Log2 (fold) (luciferase activity, log2 of the fold difference relative to DMSO controls) [2]: −0.245 | Fold (luciferase activity, fold difference relative to DMSO controls) [3]: 0.844

CCCC(=O)Nc1ncnc2c1ncn2[C@@H]1O[C@@H]2COP(=O)(O)O[C@H]2[C@H]1OC(=O)CCC [dibutyrylcyclic AMP]
Log2 (fold) (luciferase activity, log2 of the fold difference relative to DMSO controls) [2]: −0.701 | Fold (luciferase activity, fold difference relative to DMSO controls) [3]: 0.615

CCCC(=O)Nc1nc2c(ncn2C2O[C@H]3COP(=O)(O)O[C@@H]3[C@@H]2OC(=O)CCC)c(=O)[nH]1 (stereo partly shown) [dibutyrylcyclic GMP]
Log2 (fold) (luciferase activity, log2 of the fold difference relative to DMSO controls) [2]: −0.342 | Fold (luciferase activity, fold difference relative to DMSO controls) [3]: 0.789

[Cl-].c1ccc2c(c1)[I+]c1ccccc1-2 [diphenyleneiodonium Cl]
Log2 (fold) (luciferase activity, log2 of the fold difference relative to DMSO controls) [2]: −0.576 | Fold (luciferase activity, fold difference relative to DMSO controls) [3]: 0.671

OCCN(CCO)c1nc(N2CCCCC2)c2nc(N(CCO)CCO)nc(N3CCCCC3)c2n1 [dipyridamole]
Log2 (fold) (luciferase activity, log2 of the fold difference relative to DMSO controls) [2]: −0.431 | Fold (luciferase activity, fold difference relative to DMSO controls) [3]: 0.742

COc1cccc2c1C(=O)c1c(O)c3c(c(O)c1C2=O)C[C@@](O)(C(=O)CO)C[C@@H]3O[C@H]1C[C@H](N)[C@H](O)[C@H](C)O1 [doxorubicin]
Log2 (fold) (luciferase activity, log2 of the fold difference relative to DMSO controls) [2]: −0.520 | Fold (luciferase activity, fold difference relative to DMSO controls) [3]: 0.697

C=C[C@@]1(C)CC(=O)[C@]2(O)[C@@]3(C)[C@@H](O)CCC(C)(C)[C@@H]3[C@H](O)[C@H](OC(C)=O)[C@@]2(C)O1 [forskolin]
Log2 (fold) (luciferase activity, log2 of the fold difference relative to DMSO controls) [2]: −0.449 | Fold (luciferase activity, fold difference relative to DMSO controls) [3]: 0.732

COC1=C2C[C@@H](C)C[C@H](OC)[C@H](O)[C@@H](C)/C=C(\C)[C@H](OC(N)=O)[C@@H](OC)/C=C\C=C(/C)C(=O)NC(=CC1=O)C2=O [geldanamycin]
Log2 (fold) (luciferase activity, log2 of the fold difference relative to DMSO controls) [2]: −0.772 | Fold (luciferase activity, fold difference relative to DMSO controls) [3]: 0.586

O=c1c(-c2ccc(O)cc2)coc2cc(O)cc(O)c12 [genistein]
Log2 (fold) (luciferase activity, log2 of the fold difference relative to DMSO controls) [2]: −0.275 | Fold (luciferase activity, fold difference relative to DMSO controls) [3]: 0.826

COc1ccc2c(c1)c(CC(=O)O)c(C)n2C(=O)c1ccc(Cl)cc1 [indomethacin]
Log2 (fold) (luciferase activity, log2 of the fold difference relative to DMSO controls) [2]: −0.549 | Fold (luciferase activity, fold difference relative to DMSO controls) [3]: 0.683

C[C@H](CCC(=O)O)C[C@H](C)C[C@H](C)C(=O)/C=C(\O)[C@H](C)C[C@H](C)C/C=C/[C@@H](C)[C@@H](O)[C@@H](C)[C@@H](O)C[C@@H]1CC[C@@](C)([C@H]2CC[C@@](C)([C@@H](C)O)O2)O1 [ionomycin]
Log2 (fold) (luciferase activity, log2 of the fold difference relative to DMSO controls) [2]: −0.591 | Fold (luciferase activity, fold difference relative to DMSO controls) [3]: 0.664

CCCC[C@@H](C)/C=C(C)/C=C(\C)C(=O)NC1=C[C@@](O)(/C=C/C=C/C=C/C(=O)NC2=C(O)CCC2=O)[C@@H]2O[C@@H]2C1=O [manumycin A]
Log2 (fold) (luciferase activity, log2 of the fold difference relative to DMSO controls) [2]: −0.233 | Fold (luciferase activity, fold difference relative to DMSO controls) [3]: 0.851

C=C1[C@@H](O)[C@@H]2O[C@]3(CC[C@H](/C=C/[C@@H](C)[C@@H]4CC(C)=C[C@@]5(O[C@H](C[C@@](C)(O)C(=O)O)CC[C@H]5O)O4)O3)CC[C@H]2O[C@@H]1[C@@H](O)C[C@H](C)[C@H]1O[C@@]2(CCCCO2)CC[C@H]1C [okadaic acid, reference compound]
Fold [4]: 0.305 fold | Log2 (fold) (luciferase activity, log2 of the fold difference relative to DMSO controls) [2]: −1.713 | Fold (luciferase activity, fold difference relative to DMSO controls) [3]: 0.305

CC[C@@H]1/C=C/C=C/C[C@H](C)[C@H](O)[C@](C)(O)C(=O)[C@H](C)[C@@H](O)[C@H](C)C(=O)[C@H](C)[C@@H](O)[C@H](C)/C=C/C(=O)O[C@H]2[C@@H](C)[C@@H](CC1)O[C@@]1(CC[C@@H](C)[C@@H](C[C@H](C)O)O1)[C@@H]2C [oligomycin A, reference compound]
Fold [4]: 0.457 fold | Log2 (fold) (luciferase activity, log2 of the fold difference relative to DMSO controls) [2]: −1.131 | Fold (luciferase activity, fold difference relative to DMSO controls) [3]: 0.457

Cn1cnc2c(NCc3ccccc3)nc(NCCO)nc21 [olomoucine]
Log2 (fold) (luciferase activity, log2 of the fold difference relative to DMSO controls) [2]: −0.406 | Fold (luciferase activity, fold difference relative to DMSO controls) [3]: 0.755

CC(C)CC(=O)N[C@H](C(=O)N[C@H](C(=O)N[C@@H](CC(C)C)[C@@H](O)CC(=O)N[C@@H](C)C(=O)N[C@@H](CC(C)C)[C@@H](O)CC(=O)O)C(C)C)C(C)C [pepstatin] (Isovaleryl-VV[Sta]A[Sta]-OH)
Log2 (fold) (luciferase activity, log2 of the fold difference relative to DMSO controls) [2]: −0.491 | Fold (luciferase activity, fold difference relative to DMSO controls) [3]: 0.711

CCCCCCCCCCCCCC(=O)O[C@@H]1[C@@H](C)[C@@]2(O)[C@@H](C=C(CO)C[C@]3(O)C(=O)C(C)=C[C@@H]23)[C@@H]2C(C)(C)[C@]12OC(C)=O [phorbol 12 myristate 13 acetate]
Log2 (fold) (luciferase activity, log2 of the fold difference relative to DMSO controls) [2]: −0.323 | Fold (luciferase activity, fold difference relative to DMSO controls) [3]: 0.799

CN1C(C(=O)Nc2ccccn2)=C(O)c2ccccc2S1(=O)=O [piroxicam]
Log2 (fold) of luciferase activity relative to DMSO controls (assessed three days later): 0.147 | Fold (luciferase activity relative to DMSO controls) [1]: 1.107 fold

COc1cc2nc(N3CCN(C(=O)c4ccco4)CC3)nc(N)c2cc1OC [prazocin]
Log2 (fold) of luciferase activity relative to DMSO controls (assessed three days later): 0.011 | Fold (luciferase activity relative to DMSO controls) [1]: 1.008 fold

CC[N+](C)(CC)CCC[n+]1c(-c2ccccc2)c2cc(N)ccc2c2ccc(N)cc21.[I-].[I-] [propidium iodide]
Log2 (fold) of luciferase activity relative to DMSO controls (assessed three days later): 0.100 | Fold (luciferase activity relative to DMSO controls) [1]: 1.072 fold

COc1ccc(C[C@H](N)C(=O)N[C@H]2[C@@H](O)[C@H](n3cnc4c(N(C)C)ncnc43)O[C@@H]2CO)cc1 [puromycin]
Log2 (fold) of luciferase activity relative to DMSO controls (assessed three days later): 0.281 | Fold (luciferase activity relative to DMSO controls) [1]: 1.215 fold

O=c1c(O)c(-c2ccc(O)c(O)c2)oc2cc(O)cc(O)c12 [quercetin]
Fold (luciferase activity, fold difference relative to DMSO controls) (in vivo): 0.737 | Log2 (fold) (luciferase activity, log2 of the fold difference relative to DMSO controls) (in vivo): −0.440
